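Method: 48-hour compound exposure of cells in 96-well plates, five concentrations, linear interpolation of endpoints. The concentration for 50% growth inhibition is given as GI50.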 Calls of active or inactive are those of the source. Cut-off read from the data, not from the text of the source: active = GI50 up to about 1.1 µM and inactive = higher.
How the values were obtained:
Test in all cases: inhibition of tumour cell growth, NCI panel, 48 h
MOLT-4 = test system: MOLT-4
UO-31 = test system: UO-31
OVCAR-4 = test system: OVCAR-4
SK-OV-3 = test system: SK-OV-3
HT-29 = test system: HT-29
OVCAR-5 = test system: OVCAR-5
T47D = test system: T47D
U-251 = test system: U-251
ACHN = test system: ACHN
NCI-H522 = test system: NCI-H522
Hs-578T = test system: Hs-578T
CCRF-CEM = test system: CCRF-CEM
MCF7 = test system: MCF7
UACC-62 = test system: UACC-62
TK-10 = test system: TK-10
MDA-MB-231 = test system: MDA-MB-231
HCT-116 = test system: HCT-116
SF-295 = test system: SF-295
UACC-257 = test system: UACC-257
NCI-H23 = test system: NCI-H23
IGROV-1 = test system: IGROV-1
786-0 = test system: 786-0
SK-MEL-2 = test system: SK-MEL-2
SR = test system: SR
M14 = test system: M14
MDA-MB-435 = test system: MDA-MB-435
A498 = test system: A498
SF-539 = test system: SF-539
NCI/ADR-RES = test system: NCI/ADR-RES
BT-549 = test system: BT-549
KM12 = test system: KM12
Malme-3M = test system: Malme-3M
NCI-H460 = test system: NCI-H460
RXF 393 = test system: RXF 393
CAKI-1 = test system: CAKI-1
NCI-H226 = test system: NCI-H226
OVCAR-3 = test system: OVCAR-3
HOP-62 = test system: HOP-62
A549 = test system: A549
SF-268 = test system: SF-268
COLO 205 = test system: COLO 205
PC-3 = test system: PC-3
SN12C = test system: SN12C
HOP-92 = test system: HOP-92
HCT-15 = test system: HCT-15
SW-620 = test system: SW-620
HCC 2998 = test system: HCC 2998
MDA-N = test system: MDA-N
DU-145 = test system: DU-145
SK-MEL-28 = test system: SK-MEL-28
OVCAR-8 = test system: OVCAR-8
SK-MEL-5 = test system: SK-MEL-5
RPMI-8226 = test system: RPMI-8226
K562 = test system: K562
HL-60 = test system: HL-60
LOX IMVI = test system: LOX IMVI
EKVX = test system: EKVX
SNB-75 = test system: SNB-75
SNB-19 = test system: SNB-19

## N#CCc1nc(C#N)c(N)o1
MOLT-4
  GI50: > 100 µM (inactive)
UO-31
  GI50: > 100 µM (inactive)
OVCAR-4
  GI50: > 100 µM (inactive)
SK-OV-3
  GI50: > 100 µM (inactive)
HT-29
  GI50: > 100 µM (inactive)
OVCAR-5
  GI50: > 100 µM (inactive)
T47D
  GI50: > 100 µM (inactive)
U-251
  GI50: > 100 µM (inactive)
ACHN
  GI50: > 100 µM (inactive)
NCI-H522
  GI50: > 100 µM (inactive)
Hs-578T
  GI50: > 100 µM (inactive)
CCRF-CEM
  GI50: > 100 µM (inactive)
MCF7
  GI50: > 100 µM (inactive)
UACC-62
  GI50: > 100 µM (inactive)
TK-10
  GI50: > 100 µM (inactive)
MDA-MB-231
  GI50: > 100 µM (inactive)
HCT-116
  GI50: > 100 µM (inactive)
SF-295
  GI50: > 100 µM (inactive)
UACC-257
  GI50: > 100 µM (inactive)
NCI-H23
  GI50: > 100 µM (inactive)
IGROV-1
  GI50: > 100 µM (inactive)
786-0
  GI50: > 100 µM (inactive)
SK-MEL-2
  GI50: > 100 µM (inactive)
SR
  GI50: > 100 µM (inactive)
M14
  GI50: > 100 µM (inactive)
MDA-MB-435
  GI50: > 100 µM (inactive)
A498
  GI50: > 100 µM (inactive)
SF-539
  GI50: > 100 µM (inactive)
NCI/ADR-RES
  GI50: > 100 µM (inactive)
BT-549
  GI50: > 100 µM (inactive)
KM12
  GI50: > 100 µM (inactive)
Malme-3M
  GI50: < 10 nM (active)
NCI-H460
  GI50: > 100 µM (inactive)
RXF 393
  GI50: > 100 µM (inactive)
CAKI-1
  GI50: > 100 µM (inactive)
NCI-H226
  GI50: > 100 µM (inactive)
OVCAR-3
  GI50: > 100 µM (inactive)
HOP-62
  GI50: > 100 µM (inactive)
A549
  GI50: > 100 µM (inactive)
SF-268
  GI50: > 100 µM (inactive)
COLO 205
  GI50: > 100 µM (inactive)
PC-3
  GI50: > 100 µM (inactive)
SN12C
  GI50: > 100 µM (inactive)
HOP-92
  GI50: > 100 µM (inactive)
HCT-15
  GI50: > 100 µM
SW-620
  GI50: > 100 µM (inactive)
HCC 2998
  GI50: > 100 µM (inactive)
MDA-N
  GI50: > 100 µM (inactive)
DU-145
  GI50: > 100 µM (inactive)
SK-MEL-28
  GI50: > 100 µM (inactive)
OVCAR-8
  GI50: > 100 µM (inactive)

## O=C1Nc2ccccc2/C1=C/c1ccccc1
MOLT-4
  GI50: 15.6 µM (inactive)
UO-31
  GI50: 12.6 µM (inactive)
OVCAR-4
  GI50: 23.6 µM (inactive)
SK-OV-3
  GI50: 28.8 µM (inactive)
HT-29
  GI50: 22.6 µM (inactive)
OVCAR-5
  GI50: 18.5 µM (inactive)
T47D
  GI50: 12.3 µM (inactive)
U-251
  GI50: 15 µM (inactive)
ACHN
  GI50: 30.4 µM (inactive)
NCI-H522
  GI50: 15.8 µM (inactive)
SK-MEL-5
  GI50: 13.3 µM (inactive)
RPMI-8226
  GI50: 18.2 µM (inactive)
Hs-578T
  GI50: 24.1 µM (inactive)
K562
  GI50: 27.7 µM (inactive)
CCRF-CEM
  GI50: 17.8 µM (inactive)
MCF7
  GI50: 3.36 µM (inactive)
HL-60
  GI50: 14.6 µM (inactive)
UACC-62
  GI50: 13.9 µM (inactive)
TK-10
  GI50: 21.7 µM (inactive)
MDA-MB-231
  GI50: 17.8 µM (inactive)
HCT-116
  GI50: 14 µM (inactive)
SF-295
  GI50: 17.5 µM (inactive)
UACC-257
  GI50: 15 µM (inactive)
NCI-H23
  GI50: 18.1 µM (inactive)
IGROV-1
  GI50: 11.7 µM (inactive)
786-0
  GI50: 13.8 µM (inactive)
SK-MEL-2
  GI50: 14.3 µM (inactive)
SR
  GI50: 14.4 µM (inactive)
LOX IMVI
  GI50: 13.2 µM (inactive)
M14
  GI50: 16.7 µM (inactive)
MDA-MB-435
  GI50: 15.8 µM (inactive)
A498
  GI50: 13.5 µM (inactive)
SF-539
  GI50: 15.4 µM (inactive)
NCI/ADR-RES
  GI50: 22.8 µM (inactive)
BT-549
  GI50: 16.4 µM (inactive)
KM12
  GI50: 15.3 µM (inactive)
NCI-H460
  GI50: 15.5 µM (inactive)
RXF 393
  GI50: 9.27 µM (inactive)
CAKI-1
  GI50: 29.2 µM (inactive)
NCI-H226
  GI50: 17.1 µM (inactive)
OVCAR-3
  GI50: 16.7 µM (inactive)
HOP-62
  GI50: 18 µM (inactive)
A549
  GI50: 25.2 µM (inactive)
SF-268
  GI50: 15.6 µM (inactive)
COLO 205
  GI50: 16.8 µM (inactive)
PC-3
  GI50: 14.6 µM (inactive)
SN12C
  GI50: 14.1 µM (inactive)
HOP-92
  GI50: 11 µM (inactive)
HCT-15
  GI50: 14 µM
SW-620
  GI50: 25.2 µM (inactive)
HCC 2998
  GI50: 15.8 µM (inactive)
MDA-N
  GI50: 17.7 µM (inactive)
DU-145
  GI50: 13.8 µM (inactive)
EKVX
  GI50: 13.8 µM (inactive)
SK-MEL-28
  GI50: 20.8 µM (inactive)
SNB-75
  GI50: 12.9 µM (inactive)
OVCAR-8
  GI50: 18.8 µM (inactive)
SNB-19
  GI50: 14.5 µM (inactive)
